{"source": "patent US8906885B2", "about": "“Treating cancer with HSP90 inhibitory compounds” (Synta Pharmaceuticals Corp., priority 2011, dated 2014)", "key": {"H3122 NSCLC cells": {"system": "H3122 NSCLC cells", "test": "H3122 cell viability, Cell Titer Glo, 72 h", "type": "cell-based", "details": "for IC50: Homo sapiens, NCI-H3122, read-out: cytotoxic potency", "protocol": "H3122 cells were seeded in 96 well plates at a density of 7500 cells per well.\nTwenty-four hours after plating, cells were dosed with graded concentrations of drug or vehicle for 72 hours. Viability was measured by the Cell Titer Glo assay (Promega).\n(§1) Then, criztoinib was added to a final concentration of 1 μM. […] Viability was measured by Cell Titer Glo assay (Promega) (FIG. 5)"}, "[1]": {"system": "NB-39-nu neuroblastoma cell line", "test": "NB-39-nu neuroblastoma cell viability", "details": "for effect in combination with ganetespib: NB-39-nu cells"}, "H3122 xenografts [2]": {"system": "H3122 xenografts", "test": "Sequential treatment of H3122 xenografts progressing on ganetespib", "type": "in vivo, mouse", "details": "after 26 days of ganetespib"}, "H3122 xenografts [3]": {"system": "H3122 xenografts", "test": "Survival of animals bearing H3122 xenografts", "type": "in vivo, mouse"}, "EML4-ALK positive NSCLC": {"system": "EML4-ALK positive NSCLC", "test": "Case study, crizotinib refractory EML4-ALK positive NSCLC patient", "type": "in vivo, human", "details": "after three weeks of once-weekly injections; patient with resistance mutation to crizotinib", "excerpt": "FIG. 2 depicts lung photographs of a person with NSCLC, who was diagnosed, and treated with pemetrexed/cisplatinum with pemetrexed maintenance for thirteen months. […] The picture on the left was taken on before commencing treatment with ganetespib. Treatment of ganetespib was initiated nine days later. The picture on the right was taken thirty-one days after the picture on the left.\nThe picture on the left was taken on before commencing treatment with ganetespib. Treatment of ganetespib was initiated nine days later."}, "[4]": {"system": "NPM-ALK and mutant NPM-ALK", "test": "Immunoblotting of NPM-ALK degradation in BaF3 cells", "type": "cell-based", "details": "wild type and 15 mutant forms"}, "H3122 xenografts [5]": {"system": "H3122 xenografts", "protocol": "Tumor volume was measured twice weekly to assess the level of growth inhibition.\nAs for in vivo xenograft tumor models, female BALB/c, immunodeficient BALB/c nude and CB-17/Icr-Prkdcscid/Crl (SCID) mice (Charles River Laboratories, Wilmington, Mass.) at 7-12 weeks of age were maintained in a pathogen-free environment and all in vivo procedures were approved by the Synta Pharmaceuticals Corp. Statistical analyses were performed using a Kruskal-Wallace one-way ANOVA on ranks followed by the Tukey test. […]"}, "EML4-ALK [6]": {"target": "T1, EML4-ALK (Homo sapiens, UniProt Q9UM73)", "T1 construct": "the breakpoint of ALK occurs consistently at exon 20, 5′ of the kinase domain; EML4 N-terminal portion (through exon 13); endogenous in cells; host or cells: H3122 NSCLC cells; the other entry of the earlier key: EML4 (Q9HC35, Echinoderm microtubule-associated protein-like 4)", "T1 sequence (Q9UM73 with tags, fused parts or gaps)": "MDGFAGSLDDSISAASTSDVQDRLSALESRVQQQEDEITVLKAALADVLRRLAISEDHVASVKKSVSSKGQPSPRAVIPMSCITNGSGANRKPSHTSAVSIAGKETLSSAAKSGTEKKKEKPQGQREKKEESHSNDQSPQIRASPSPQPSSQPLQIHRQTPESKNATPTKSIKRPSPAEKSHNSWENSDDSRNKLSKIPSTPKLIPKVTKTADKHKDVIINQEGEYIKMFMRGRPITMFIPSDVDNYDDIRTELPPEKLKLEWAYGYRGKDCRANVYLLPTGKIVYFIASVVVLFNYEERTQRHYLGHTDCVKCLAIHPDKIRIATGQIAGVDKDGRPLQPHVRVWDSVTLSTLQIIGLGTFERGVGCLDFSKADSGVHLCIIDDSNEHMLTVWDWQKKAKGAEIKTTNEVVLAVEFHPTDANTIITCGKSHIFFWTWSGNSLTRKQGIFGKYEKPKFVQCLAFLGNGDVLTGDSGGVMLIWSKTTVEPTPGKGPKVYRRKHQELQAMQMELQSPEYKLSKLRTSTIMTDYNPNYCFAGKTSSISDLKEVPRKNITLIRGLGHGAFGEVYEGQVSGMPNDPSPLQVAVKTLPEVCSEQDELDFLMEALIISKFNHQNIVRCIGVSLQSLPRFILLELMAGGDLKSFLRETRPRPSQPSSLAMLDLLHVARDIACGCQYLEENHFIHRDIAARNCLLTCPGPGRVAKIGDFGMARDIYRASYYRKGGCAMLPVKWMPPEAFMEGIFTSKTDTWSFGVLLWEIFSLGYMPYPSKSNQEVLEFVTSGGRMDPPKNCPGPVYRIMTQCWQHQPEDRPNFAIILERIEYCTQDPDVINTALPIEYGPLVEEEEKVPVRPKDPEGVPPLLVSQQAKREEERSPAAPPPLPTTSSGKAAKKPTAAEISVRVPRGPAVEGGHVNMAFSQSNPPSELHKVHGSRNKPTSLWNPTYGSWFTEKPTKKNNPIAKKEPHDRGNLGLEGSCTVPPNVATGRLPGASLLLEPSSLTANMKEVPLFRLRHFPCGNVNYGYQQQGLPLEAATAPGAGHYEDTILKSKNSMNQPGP", "test": "Western blot of EML4-ALK and signaling proteins in H3122 cells", "type": "cell-based", "protocol": "H3122 cells were plated in 6 well plates at a density of 300,000 cells per well. […] Equivalent amounts of protein were resolved by SDS-PAGE followed by western blot analysis of signaling proteins."}, "EML4-ALK [7]": {"system": "EML4-ALK", "test": "Pharmacodynamic analysis in H3122 xenografts (western blot)"}, "H2228 NSCLC cells": {"system": "H2228 NSCLC cells", "test": "H2228 cell viability", "type": "cell-based"}, "[8]": {"system": "crizotinib resistant H2228 cells", "test": "Viability of crizotinib resistant H2228 cells", "type": "cell-based"}, "NPM-ALK/BaF3 cells": {"system": "NPM-ALK/BaF3 cells", "test": "Cytotoxic IC50 by XTT assay, NPM-ALK/BaF3 cells", "details": "read-out: cytotoxic IC50; crizotinib-sensitive parental NPM-ALK/BaF3, 72-hr incubation"}, "ALK+ NSCLC": {"system": "ALK+ NSCLC", "test": "Phase 2 NSCLC trial, patients tested for ALK translocation or rearrangement (ALK+)", "type": "in vivo, human", "details": "eight ALK+ patients; monotherapy once-weekly 200 mg/m^2", "excerpt": "FIG. 1 is a waterfall diagram showing the best percentage changes in size of target lesions responses according to ALK status after treatment with ganetespib. The y axis represents the percentage tumor volume change from baseline. […] A subject was considered to be ALK+ if a mutation in ALK was detected using any of the methods.\nOf 23 patients in a Phase 2 trial tested for ALK translocation or rearrangement (ALK+), eight patients were ALK+ in at least one assay. […] The disease control rate in this population was ⅞ (88%), and the objective response rate (CR+PR) was 4/8 (50%).\nThis Phase 2 NSCLC trial was designed to enroll patients with advanced, metastatic disease (Stage IIIB and IV) who had failed prior therapy. Patients were grouped into one of three cohorts based on the genetic profile of their cancer—(A) EGFR mutation, (B) KRAS mutation, (C) neither EGFR nor KRAS mutation—and were treated with Compound 1, as a monotherapy, once-weekly at a dose of 200 mg/m^2. Based on initial encouraging signs of activity, the trial was expanded with two additional patient cohorts, including a cohort which allowed for combination treatment with ganetespib and docetaxel."}, "[9]": {"system": "crizotinib resistant H3122 cells", "test": "Viability of crizotinib resistant H3122 cells", "type": "cell-based", "protocol": "as §1"}, "[10]": {"system": "crizotinib-resistant NPM-ALK/BaF3 cells", "details": "all crizotinib-resistant NPM-ALK/BaF3 clones"}, "ALK": {"system": "ALK", "test": "ALK degradation and effector signaling in NB-39-nu cells"}}, "note": "Where two headings read alike, the source gives them in different places.", "data": [{"smiles": "C[C@@H](Oc1cc(-c2cnn(C3CCNCC3)c2)cnc1N)c1c(Cl)ccc(F)c1Cl", "note": "[crizotinib, reference compound]", "values": [{"measurement": "IC50", "setting": "H3122 NSCLC cells; H3122 cells", "value": 156, "unit": "nM"}, {"measurement": "effect in combination with ganetespib", "setting": "[1]", "value": "enhanced the anticancer actions of ganetespib"}, {"measurement": "response of tumors progressing (>20% increase in volume) on ganetespib to subsequent treatment", "setting": "H3122 xenografts [2]", "value": "intermediary response"}, {"measurement": "survival (day at which 50% of animals died)", "setting": "H3122 xenografts [3]; crizotinib 50 mg/kg 5×/wk", "value": 54, "unit": "days"}]}, {"smiles": "CC(C)c1cc(-c2nnc(O)n2-c2ccc3c(ccn3C)c2)c(O)cc1O", "note": "[ganetespib, 3-(2,4-dihydroxy-5-isopropyl-phenyl)-4-(1-methyl-indol-5-yl)-5-hydroxy-[1,2,4] triazole]", "values": [{"measurement": "tumor response on lung pictures", "setting": "EML4-ALK positive NSCLC", "value": "visible and significant tumor shrinkage"}, {"measurement": "degradation of ALK", "setting": "[4]", "value": "induced the degradation of wild type and all 15 mutant forms of ALK"}, {"measurement": "potency compared with crizotinib", "setting": "H3122 NSCLC cells; H3122 NSCLC cells", "value": "significantly more potent than crizotinib"}, {"measurement": "potency relative to crizotinib", "setting": "H3122 NSCLC cells; H3122 cells", "value": "~50", "unit": "times"}, {"measurement": "potency compared to other anticancer agents (crizotinib, 17-AAG, pemetrexed, BEZ-235, AZD6244)", "setting": "H3122 NSCLC cells; H3122 cells, 72 hours", "value": "2-300 ×"}, {"measurement": "IC50", "setting": "H3122 NSCLC cells; H3122 cells", "value": 3.2, "unit": "nM"}, {"measurement": "T/C value", "setting": "H3122 xenografts [5]; ganetespib 25 mg/kg once weekly", "value": 41, "unit": "%"}, {"measurement": "T/C value", "setting": "H3122 xenografts [5]; ganetespib 25 mg/kg two consecutive days each week", "value": 10, "unit": "%"}, {"measurement": "T/C value", "setting": "H3122 xenografts [5]; ganetespib 50 mg/kg i.v. once a week, 3 week period", "value": 21, "unit": "%"}, {"measurement": "concentration giving complete loss of phosphorylated EML4-ALK", "setting": "EML4-ALK [6]", "value": 30, "unit": "nM"}, {"measurement": "duration of EML4-ALK depletion and block of oncogenic signaling pathways", "setting": "EML4-ALK [7]; 100 mpk (FIG. 13 legend)", "value": "up to 4 days"}, {"measurement": "time to degradation of EML4-ALK and deactivation of ERK signaling", "setting": "EML4-ALK [7]; single bolus injection 50 mg/kg", "value": "≤ 24", "unit": "h"}, {"measurement": "duration of destabilization of fusion kinase and its effectors", "setting": "EML4-ALK [7]; single dose 50 mg/kg", "value": "up to 72 h"}, {"measurement": "potency compared with crizotinib", "setting": "H2228 NSCLC cells", "value": "significantly more potent than crizotinib"}, {"measurement": "IC50", "setting": "[1]; Neuroblastoma cell, read-out: viability IC50", "value": 10, "unit": "nM"}, {"measurement": "activity in crizotinib resistant cells", "setting": "[8]", "value": "low nanomolar activity equivalent to that observed in the parental population"}, {"measurement": "IC50", "setting": "NPM-ALK/BaF3 cells", "value": 21, "unit": "nM"}, {"measurement": "disease control rate", "setting": "ALK+ NSCLC", "value": 88, "unit": "%"}, {"measurement": "objective response rate (CR+PR)", "setting": "ALK+ NSCLC", "value": 50, "unit": "%"}, {"measurement": "patients showing tumor shrinkage in target lesions", "setting": "ALK+ NSCLC", "value": 75, "unit": "%"}, {"measurement": "response of tumors progressing (>20% increase in volume) on ganetespib to subsequent treatment", "setting": "H3122 xenografts [2]", "value": "remained fairly stable"}, {"measurement": "activity in crizotinib resistant cells", "setting": "[9]", "value": "low nanomolar activity equivalent to that observed in the parental population"}, {"measurement": "animals lost on study", "setting": "H3122 xenografts [3]; ganetespib 50 mg/kg 1×/wk, as of day 75", "value": "none of the animals treated with ganetespib had been lost"}, {"measurement": "IC50 values in crizotinib-resistant clones", "setting": "[10]", "value": "essentially identical to that of NPM-ALK/BaF3"}, {"measurement": "degradation of ALK", "setting": "ALK", "value": "dose-dependent degradation"}]}, {"smiles": "COc1cc(N2CCC(N3CCN(C)CC3)CC2)ccc1Nc1ncc(Cl)c(Nc2ccccc2S(=O)(=O)C(C)C)n1", "note": "[TAE684]", "values": [{"measurement": "effect in combination with ganetespib", "setting": "[1]", "value": "enhanced the anticancer actions of ganetespib"}]}]}
